Consider 24 compounds from patent US20230121086A1, “RORgT INHIBITOR, PREPARATION METHOD THEREOF AND USE THEREOF” (SUNSHINE LAKE PHARMA CO., LTD., priority 2020, published 2023).

In this experiment the target is T1, RORγt (Homo sapiens, UniProt P51449).
T1 construct: […]
T1 sequence (P51449 269-508 limits assumed): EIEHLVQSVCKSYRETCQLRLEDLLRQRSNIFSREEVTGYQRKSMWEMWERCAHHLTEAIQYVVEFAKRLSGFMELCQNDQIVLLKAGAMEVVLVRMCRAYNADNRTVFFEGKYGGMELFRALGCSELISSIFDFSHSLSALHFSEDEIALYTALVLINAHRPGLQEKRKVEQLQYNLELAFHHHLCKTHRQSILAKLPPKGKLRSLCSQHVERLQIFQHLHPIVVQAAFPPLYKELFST
The experiment in a line: Fluorescence resonance energy transfer (FRET) test, inhibitory activity of RORγt. Format: biochemical. The note with it: FRET, B-RORγt LBD / Biotin-SRC1; read-out: IC50.

The IC50 is the point on the concentration scale where inhibition reaches its midpoint. Regarding `CCS(=O)(=O)c1ccc([C@H](CC#N)NC(=O)c2ccc(N3C[C@@H](Oc4ccc(OC)cn4)C[C@H]3COC(F)F)cc2)cc1` [Example 41, N—((S)-2-cyano-1-(4-(ethylsulfonyl)phenyl)ethyl)-4-((2S,4S)-2-((difluoromethoxy)methyl)-4-((5-methoxypyridin-2-yl)oxy)pyrrolidin-1-yl)benzamide], the IC50 is 17 nM.

Consider `CCS(=O)(=O)c1ccc([C@H](COC(=O)NC)NC(=O)c2ccc(N3C[C@@H](Oc4ccc(OC(F)(F)F)cn4)C[C@H]3COC(F)F)cc2)cc1` [Example 155, (R)-2-(4-((2S,4S)-2-((difluoromethoxy)methyl)-4-((5-(trifluoromethoxy)pyridin-2-yl)oxy)pyrrolidin-1-yl)benzoylamino)-2-(4-(ethylsulfonyl)phenyl)ethyl methylcarbamate], for which the IC50 was 11 nM.

For `CCS(=O)(=O)c1ccc([C@H](CC(=O)N(C)C)NC(=O)c2ccc(N3C[C@@H](Oc4ccc(C(F)(F)F)cc4)C[C@H]3COC(F)F)cc2)cc1` [Example 95], the 50% inhibitory concentration (IC50) came out at 77 nM.

Take `CCS(=O)(=O)c1ccc([C@H](COCC(=O)O)NC(=O)c2ccc(N3C[C@@H](Oc4ccc(C(F)(F)F)cc4)C[C@H]3COC(F)F)cc2)cc1` [Example 90, 2-((R)-2-(4-((2S,4S)-2-((difluoromethoxy)methyl)-4-(4-(trifluoromethyl)phenoxy)pyrrolidin-1-yl)benzoylamino)-2-(4-(ethylsulfonyl)phenyl)ethoxy)acetic Acid]: the IC50 was 9 nM.

Turning to `CCS(=O)(=O)c1ccc([C@H](CC(=O)OC)NC(=O)c2ccc(N3C[C@@H](Oc4ccc(C(F)(F)F)cc4)C[C@H]3COC(F)(F)F)cc2)cc1` [Example 96, methyl (S)-3-(4-(ethylsulfonyl)phenyl)-3-(4-((2S,4S)-2-((trifluoromethoxy)methyl)-4-(4-(trifluoromethyl)phenoxy)pyrrolidin-1-yl)benzamido)propionate], the IC50 was 31 nM.

On to `CCS(=O)(=O)c1ccc(C(CC#N)NC(=O)c2ccc(N3CC(c4ccc(C(F)(F)F)cc4)C[C@H]3COC(F)F)cc2)cc1` (stereo in doubt) [Example 81, N—((S)-2-cyano-1-(4-(ethylsulfonyl)phenyl)ethyl)-4-((2S,4S)-2-((difluoromethoxy)methyl)-4-(4-(trifluoromethyl)phenyl)pyrrolidin-1-yl)benzamide], for which the IC50 amounted to 44 nM.

For the compound `CCS(=O)(=O)c1ccc([C@H](CC(=O)NCC(=O)O)NC(=O)c2ccc(N3C[C@@H](Oc4ccc(C(F)(F)F)cc4)C[C@H]3COC(F)F)cc2)cc1` [Example 100, 2-((S)-3-(4-((2S,4S)-2-((difluoromethoxy)methyl)-4-(4-(trifluoromethyl)phenoxy)pyrrolidin-1-)benzoylamino)-3-(4-(ethylsulfonyl)phenyl)propionamido)acetic Acid], the half-inhibitory concentration (IC50) came to 14 nM.

With `CCS(=O)(=O)c1ccc([C@H](CC#N)NC(=O)c2ccc(N3C[C@@H](Oc4ccc(OC(C)C)nc4)C[C@H]3COC(F)F)cc2)cc1` [Example 20, N-((S)-2-cyano-1-(4-(ethylsulfonyl)phenyl)ethyl)-4-((2S,4S)-2-((difluoromethoxy)methyl)-4-((6-isopropoxypyridin-3-yl)oxy)pyrrolidin-1-yl)benzamide], the IC50 stood at 30 nM.

For `CCS(=O)(=O)c1ccc([C@H](CC#N)NC(=O)c2ccc(N3C[C@@H](Oc4ccc(C#N)cc4)C[C@H]3COC(F)F)cc2)cc1` [Example 24, N-((S)-2-cyano-1-(4-(ethylsulfonyl)phenyl)ethyl)-4-((2S,4S)-4-(4-cyanophenoxy)-2-((difluoromethoxy)methyl)pyrrolidin-1-yl)benzamide], the IC50 came to 19 nM.

`CCS(=O)(=O)c1ccc([C@H](CC#N)NC(=O)c2ccc(N3C[C@@H](Oc4ccc(Cl)cn4)C[C@H]3COC(F)F)cc2)cc1` [Example 160, 4-((2S,4S)-4-((5-chloropyridin-2-yl)oxy)-2-((difluoromethoxy)methyl)pyrrolidin-1-yl)-N—((S)-2-cyano-1-(4-(ethylsulfonyl)phenyl)ethyl)benzamide]: the 50% inhibitory concentration (IC50) was found to be 5.6 nM.

Regarding `CCS(=O)(=O)c1ccc([C@H](CC(=O)O)NC(=O)c2ccc(N3C[C@@H](Oc4ccc(C(F)(F)F)cc4)C[C@H]3COC(F)F)cc2)cc1` [Example 92, (S)-3-(4-((2S,4S)-2-((difluoromethoxy)methyl)-4-(4-(trifluoromethyl)phenoxy)pyrrolidin-1-yl)benzoylamino)-3-(4-(ethylsulfonyl)phenyl)propionic Acid], the IC50 was 21 nM.

Take `CCS(=O)(=O)c1ccc([C@H](COC(N)=O)NC(=O)c2ccc(N3C[C@@H](Oc4ccc(OC(F)(F)F)cn4)C[C@H]3COC(F)F)cc2)cc1` [Example 156, (R)-2-(4-((2S,4S)-2-((difluoromethoxy)methyl)-4-((5-(trifluoromethoxy)pyridin-2-yl)oxy)pyrrolidin-1-yl)benzoylamino)-2-(4-(ethylsulfonyl)phenyl)ethyl carbamate]: the IC50 amounted to 3.1 nM.

`CCS(=O)(=O)c1ccc([C@H](CC#N)NC(=O)c2ccc(N3C[C@@H](Oc4ccc(C(F)(F)F)cc4)C[C@H]3CCOC(F)F)cc2)cc1` [Example 75, N—((S)-2-cyano-1-(4-(ethylsulfonyl)phenyl)ethyl)-4-((2R,4S)-2-(2-(difluoromethoxy)ethyl)-4-(4-(trifluoromethyl)phenoxy)pyrrolidin-1-yl)benzamide]: the IC50 came out at 10 nM.

For the compound `CCS(=O)(=O)c1ccc([C@H](CC#N)NC(=O)c2ccc(N3CC(Oc4ccc(C(F)(F)F)cc4)C[C@H]3COC(F)F)cc2)cc1` (single isomer, unassigned) [Example 74], the IC50 worked out at 70 nM.

In the case of `CCS(=O)(=O)c1ccc([C@H](CC#N)NC(=O)c2ccc(N3C[C@@H](Oc4ccc(C(O)(C(F)(F)F)C(F)(F)F)cc4)C[C@H]3COC(F)F)cc2)cc1` [Example 26, N-((S)-2-cyano-1-(4-(ethylsulfonyl)phenyl)ethyl)-4-((2S,4S)-2-((difluoromethoxy)methyl)-4-(4-(1,1,1,3,3,3-hexafluoro-2-hydroxypropan-2-yl)phenoxy)pyrrolidin-1-yl)benzamide], the half-inhibitory concentration (IC50) is 23 nM.

For the compound `CCS(=O)(=O)c1ccc([C@H](CC#N)NC(=O)c2ccc(N3C[C@@H](Oc4ccc(-n5cnc(C)c5)cc4)C[C@H]3COC(F)F)cc2)cc1` [Example 45, N—((S)-2-cyano-1-(4-(ethylsulfonyl)phenyl)ethyl)-4-((2S,4S)-2-((difluoromethoxy)methyl)-4-(4-(4-methyl-1H-imidazol-1-yl)phenoxy)pyrrolidin-1-yl)benzamide], the IC50 was 43 nM.

On to “N—((S)-2-cyano-1-(4-(ethylsulfonyl)phenyl)ethyl)-4-((2S,5R)-5-(2,2-difluorobenzo[1,3]dioxol yl)-2-((difluoromethoxy)methyl)piperidin-1-yl)benzamide [Example 112-2]”, for which the IC50 came out at 13 nM.

Turning to `CCS(=O)(=O)c1ccc([C@H](CNC(=O)OC)NC(=O)c2ccc(N3C[C@@H](Oc4ccc(C(F)(F)F)cc4)C[C@H]3COC(F)F)cc2)cc1` [Example 147, methyl ((R)-2-(4-((2S,4S)-2-((difluoromethoxy)methyl)-4-(4-(trifluoromethyl)phenoxy)pyrrolidin-1-yl)benzoylamino)-2-(4-(ethylsulfonyl)phenyl)ethyl)carbamate], the half-inhibitory concentration (IC50) was 18.2 nM.

As for `CCS(=O)(=O)c1ccc([C@H](COC(N)=O)NC(=O)c2ccc(N3C[C@@H](Oc4ccc(Cl)cn4)C[C@H]3COC(F)F)cc2)cc1` [Example 153, (R)-2-(4-((2S,4S)-4-((5-chloropyridin-2-yl)oxy)-2-((difluoromethoxy)methyl)pyrrolidin-1-yl)benzoylamino)-2-(4-(ethylsulfonyl)phenyl)ethyl carbamate], the IC50 is 5 nM.

`CCS(=O)(=O)c1ccc([C@H](CC#N)NC(=O)c2ccc(N3C[C@@H](Oc4ccc(F)cc4)C[C@H]3COC(F)F)cc2)cc1` [Example 28, N-((S)-2-cyano-1-(4-(ethylsulfonyl)phenyl)ethyl)-4-((2S,4S)-2-((difluoromethoxy)methyl)-4-(4-fluorophenoxy)pyrrolidin-1-yl)benzamide]: the IC50 was determined as 24 nM.

Take `CCS(=O)(=O)c1ccc([C@H](COC(=O)NC)NC(=O)c2ccc(N3C[C@@H](Oc4ccc(C(F)(F)F)cc4)C[C@H]3COC(F)F)cc2)cc1` [Example 150, (R)-2-(4-((2S,4S)-2-((difluoromethoxy)methyl)-4-(4-(trifluoromethyl)phenoxy)pyrrolidin-1-yl)benzoylamino)-2-(4-(ethylsulfonyl)phenyl)ethyl methylcarbamate]: the IC50 was found to be 10 nM.

On to `CCS(=O)(=O)c1ccc([C@H](CC#N)NC(=O)c2ccc(N3C[C@@H](c4ccc(C(F)(F)F)cc4)CC[C@H]3COC(F)F)c(F)c2)cc1` [Example 113-2, N—((S)-2-cyano-1-(4-(ethylsulfonyl)phenyl)ethyl)-4-((2S,5R)-2-((difluoromethoxy)methyl)-5-(4-(trifluoromethyl)phenyl)piperidin-1-yl)-3-fluorobenzamide], for which the IC50 came out at 13 nM.

Turning to `CCS(=O)(=O)c1ccc([C@H](COC(N)=O)NC(=O)c2ccc(N3C[C@@H](Oc4ccc(-n5nccn5)cn4)C[C@H]3COC(F)F)cc2)cc1` [Example 170, (R)-2-(4-((2S,4S)-4-((5-(2H-1,2,3-triazol-2-yl)pyridine-2-yl)oxy)-2-((difluoromethoxy)methyl)pyrrolidin-1-yl)benzoylamino)-2-(4-(ethylsulfonyl)phenyl)ethyl carbamate], the IC50 stood at 9 nM.

Consider `CCS(=O)(=O)c1ccc([C@@H](CC#N)NC(=O)c2ccc(N3CC(Oc4ccc(C(F)(F)F)cc4)C[C@H]3COC(F)F)cc2)cc1` (stereo in doubt) [Example 48, N-((R)-2-cyano-1-(4-(ethylsulfonyl)phenyl)ethyl)-4-((2S,4S)-2-((difluoromethoxy)methyl)-4-(4-(trifluoromethyl)phenoxy)pyrrolidin-1-yl)benzamide], for which the IC50 was 8 nM.
